Legend:
[1] = CDX model: body and organ weight, CBC and blood biochemistry; type: in vivo; details: NSG mice
Description: The procedures for the establishment of breast cancer-bearing xenograft models were modified from a previous publication and approved by the Taipei Medical University (TMU) Institutional Animal Care and Use Committee (IACUC No. LAC-2020-0175). Overall, 4- to 6-week-old NOD.Cg-PrkdcscidIl2rgtm1Wjl/SzJ (NSG) female mice purchased from National Laboratory Animal Center (Taipei, Taiwan) were housed in specific pathogen-free rooms with ad libitum feeding and 12 h light–dark cycle. After a week of acclimatization, 2 × 10^6 MDA-MB-231 cells suspended in 1:1 ratio of phosphate-buffered saline plus Matrigel® Matrix (Cat. 356237; Corning Inc., New York, NY, USA) were subcutaneously injected on the right flank of each mouse. […] To monitor tumor growth in the models, tumor diameter was measured using an electronic caliper and values were applied on the equation: width^2 × length × 0.52 to estimate their tumor volume. All mice were sacrificed on day 28 after treatment. Plasma, tumors and major organs (heart, liver, kidney, spleen and lung) were collected for toxicity assessment and metastasis evaluation. Whole blood harvested from sacrificed animals was collected in EDTA-containing or heparin-containing tubes for CBC and biochemical analysis. For biochemical analysis, whole blood was centrifuged under 2000× g for 5 min to separate plasma from blood cells and then plasma was kept and stored in a −20 °C fridge until further analysis. Concentrations of albumin, total protein, aspartate aminotransferase (AST), alanine aminotransferase (ALT) and creatinine (CREA) in plasma, numbers of red blood cells (RBC), platelets (PLT), white blood cells (WBC) and hemoglobin (HGB) concentration in EDTA-anticoagulated whole blood were determined by medical laboratory scientists in Taipei Medical University Hospital (Taipei, Taiwan).

[2] = tested on: MDA-MB-231 cells; test: Apoptosis detection (annexin V/PI, flow cytometry); type: cell-based, human; details: MDA-MB-231, 15 h
Description: In total, 3 × 10^5 MDA-MB-231 cells were first plated and cultured in a 6-well plate for 24 h and then exposed to medium, TFBPC- or CDDP-containing medium, and incubated in the dark for another 15 h, followed by apoptotic assessment using FITC-annexin V (AV) and propidium iodide (PI) double staining cell solution (Thermo Fisher Scientific Inc., Waltham, MA, USA) for 30 min. To assess the AV-Phosphatidylserine (excitation/emission maxima of 490/525 nm) and PI-DNA (excitation/emission maxima of 535/617 nm) binding, fluorescence intensity was analyzed and recorded using flow cytometer. Scatters in a two-parameter dot plot were gated into four quadrants. Proportions in the lower right (LR) and upper right (UR) quadrants were represented as the early stage and late stage in apoptotic process.

[3] = tested on: MDA-MB-231 cells; test: DNA fragmentation (agarose gel); type: cell-based, human; details: MDA-MB-231, 24 h
Description: DNA samples suspended in DNA lysis buffer containing 1.0 mM Tris hydrochloride (pH 7.5), 10 mM EDTA (pH 8.0), 10 mM sodium chloride and 0.5% Triton X-100.

[4] = tested on: COLO205; test: MTT cell viability assay on COLO205; type: cell-based, human; details: for reduction (proliferative inhibition): COLO205, 20 μM; for IC50: COLO205, MTT assay, 48 h
Description: (§1) Human cancer cell lines, including MDA-MB-231, MCF-7, COLO205 and SK-OV-3, used in this study were purchased from American Type Culture Collection (ATCC, Manassas, VA, USA). All cell cultures were maintained in a 5% CO2-containing incubator at 37 °C. Triple-negative breast cancer cell line MDA-MB-231 and estrogen receptor-positive breast cancer cells MCF-7 were cultured in Dulbecco’s Modified Eagle Medium/Nutrient Mixture F-12 medium (DMEM/F12, Thermo Fisher Scientific Inc., Waltham, MA, USA) supplemented with 1% HyClone Penicillin-Streptomycin 100X solution (Cytiva, Marlborough, MA, USA) and 10% (v/v) fetal bovine serum (Thermo Fisher Scientific Inc., Waltham, MA, USA). COLO205 colon cancer cells and SK-OV-3 ovarian cancer cells were cultured in Roswell Park Memorial Institute (RPMI) 1640 medium (Thermo Fisher Scientific Inc., Waltham, MA, USA) containing the same supplements as described above.
(§2) Cell viability was evaluated using MTT assay. […] A viable cell count was determined by adding MTT reagent (3-(4,5-Dimethyl-2-thiazolyl)-2,5-diphenyl-2H-tetrazolium bromide (MTT; SERVA, Heidelberg, Germany) at a concentration of 5 mg/mL in PBS followed by measurement of the absorbance at 570 nm for each well detected by μQuant™ universal microplate spectrophotometer (BioTek, Winowski, VT, USA). The assessment procedures were followed under the manufacturer’s instructions. The final results were represented as mean values in the same experimental group detected by a microplate reader.

[5] = tested on: MDA-MB-231; test: MTT cell viability assay on MDA-MB-231; type: cell-based, human; details: for reduction in cell viability: MDA-MB-231, 20 μM; for IC50: MDA-MB-231, MTT assay, 48 h
Description: as §1, §2

[6] = tested on: MDA-MB-231 cells; test: Cell line-derived xenograft (CDX) model, tumor growth; type: in vivo; details: NSG mice
Description: The procedures for the establishment of breast cancer-bearing xenograft models were modified from a previous publication and approved by the Taipei Medical University (TMU) Institutional Animal Care and Use Committee (IACUC No. LAC-2020-0175). Overall, 4- to 6-week-old NOD.Cg-PrkdcscidIl2rgtm1Wjl/SzJ (NSG) female mice purchased from National Laboratory Animal Center (Taipei, Taiwan) were housed in specific pathogen-free rooms with ad libitum feeding and 12 h light–dark cycle. After a week of acclimatization, 2 × 10^6 MDA-MB-231 cells suspended in 1:1 ratio of phosphate-buffered saline plus Matrigel® Matrix (Cat. 356237; Corning Inc., New York, NY, USA) were subcutaneously injected on the right flank of each mouse. […] To monitor tumor growth in the models, tumor diameter was measured using an electronic caliper and values were applied on the equation: width^2 × length × 0.52 to estimate their tumor volume. All mice were sacrificed on day 28 after treatment. Plasma, tumors and major organs (heart, liver, kidney, spleen and lung) were collected for toxicity assessment and metastasis evaluation.

[7] = 5 mg/kg i.p. weekly x4, day 28, reference interval 0.2–0.5
[8] = 5 mg/kg i.p. weekly x4, day 28, reference interval 4–10.9
[9] = 5 mg/kg i.p. weekly x4, day 28, reference interval 7.75–9.61
[10] = 5 mg/kg i.p. weekly x4, day 28, reference interval 13–39
[11] = 5 mg/kg i.p. weekly x4, day 28, reference interval 63–227
[12] = 5 mg/kg i.p. weekly x4, day 28, reference interval 853–1951
[13] = 5 mg/kg i.p. weekly x4, day of sacrifice (day 28)
[14] = 5 mg/kg i.p. weekly x4, day 28, PBS 1412.72 ± 120.85
[15] = 2.11 mg/kg i.p. weekly x4, day 28

Question: Which Heart ([1]; 5 mg/kg i.p. weekly x4, day 28) does the source give for `FC(F)C(F)(F)COCc1ccnc(-c2cc(COCC(F)(F)C(F)F)ccn2)c1.[Cl][Pt][Cl]` [TFBPC] here?
Answer: 0.14 ± 0.04 g

Question: What about the Kidney ([1]; 5 mg/kg i.p. weekly x4, day 28) of the same molecule?
Answer: 0.31 ± 0.02 g

Question: And the Liver ([1]; 5 mg/kg i.p. weekly x4, day 28)?
Answer: 1.04 ± 0.08 g

Question: And the Lung ([1]; 5 mg/kg i.p. weekly x4, day 28)?
Answer: 0.23 ± 0.04 g

Question: And the Spleen ([1]; 5 mg/kg i.p. weekly x4, day 28)?
Answer: 0.03 ± 0.00 g

Question: And the CREA [1, 7]?
Answer: 0.20 ± 0.00 mg/dL

Question: What about the Albumin ([1]; 5 mg/kg i.p. weekly x4, day 28, reference interval 3.0–3.9) of the same molecule?
Answer: 3.20 ± 0.29 g/dL

Question: And the WBC [1, 8]?
Answer: 5.70 ± 1.54 10^3/µL

Question: And the Total protein ([1]; 5 mg/kg i.p. weekly x4, day 28, reference interval 4.5–5.5)?
Answer: 4.98 ± 0.17 g/dL

Question: What about the RBC [1, 9] of the same molecule?
Answer: 9.85 ± 0.30 10^6/µL

Question: And the HGB ([1]; 5 mg/kg i.p. weekly x4, day 28, reference interval 12.20–13.90)?
Answer: 14.9 ± 0.53 g/dL

Question: And the ALT [1, 10]?
Answer: 38.75 ± 7.09 U/L

Question: And the AST [1, 11]?
Answer: 190.0 ± 65.17 U/L

Question: And the PLT [1, 12]?
Answer: 975 ± 205.8 10^3/µL

Question: And the Body weight [1, 13]?
Answer: 23.62 ± 1.56 g

Question: What about the “induction of apoptosis (annexin V)” value [2] of the same molecule?
Answer: caused cells to undergo an apoptotic fate

Question: What about the DNA fragmentation [3] of the same molecule?
Answer: DNA fragmentation confirms TFBPC-induced apoptosis

Question: What about the “reduction (proliferative inhibition)” value [4] of the same molecule?
Answer: 72%

Question: And the IC50 [4]?
Answer: 11.5 µM

Question: What about the “cell viability of COLO205 cells” value ([4]; MTT, 20 to 80 μM, 24 or 48 h, supplementary figure) of the same molecule?
Answer: effective in inhibiting the cell viability

Question: And the “reduction in cell viability” value [5]?
Answer: 88%

Question: And the IC50 [5]?
Answer: 3.86 µM

Question: And the tumor weight ([6]; 5 mg/kg i.p. weekly x4, day 28)?
Answer: ~ 0.3 g

Question: And the average tumor volume [6, 14]?
Answer: ~413.03 ± 87.50 mm^3

Question: What does the source list for `N.N.[Cl][Pt][Cl]` [CDDP, Cis-diamineplatinum(II) dichloride]?
Answer: Heart [1, 15]: 0.14 ± 0.04 g; Kidney [1, 15]: 0.31 ± 0.02 g; Liver [1, 15]: 1.04 ± 0.08 g; Lung [1, 15]: 0.23 ± 0.04 g; Spleen [1, 15]: 0.03 ± 0.00 g; CREA ([1]; 2.11 mg/kg i.p. weekly x4, day 28, reference interval 0.2–0.5): 0.20 ± 0.00 mg/dL; WBC ([1]; 2.11 mg/kg i.p. weekly x4, day 28, reference interval 4–10.9): 3.48 ± 0.13 ^§ 10^3/µL; RBC ([1]; 2.11 mg/kg i.p. weekly x4, day 28, reference interval 7.75–9.61): 9.25 ± 0.33 10^6/µL; ALT ([1]; 2.11 mg/kg i.p. weekly x4, day 28, reference interval 13–39): 34.25 ± 9.18 U/L; AST ([1]; 2.11 mg/kg i.p. weekly x4, day 28, reference interval 63–227): 120.3 ± 20.82 U/L; PLT ([1]; 2.11 mg/kg i.p. weekly x4, day 28, reference interval 853–1951): 867.3 ± 97.6 10^3/µL; Body weight ([1]; 2.11 mg/kg i.p. weekly x4, day of sacrifice (day 28)): 24.08 ± 2.89 g; Heart ([1]; 5 mg/kg i.p. weekly x4, day 28): 0.13 ± 0.01 g; Kidney ([1]; 5 mg/kg i.p. weekly x4, day 28): 0.29 ± 0.02 g; Liver ([1]; 5 mg/kg i.p. weekly x4, day 28): 0.98 ± 0.10 g; Lung ([1]; 5 mg/kg i.p. weekly x4, day 28): 0.26 ± 0.13 g; Spleen ([1]; 5 mg/kg i.p. weekly x4, day 28): 0.13 ± 0.18 g; CREA [1, 7]: 0.23 ± 0.05 mg/dL; WBC [1, 8]: 6.33 ± 1.59 10^3/µL; RBC [1, 9]: 9.18 ± 0.46 10^6/µL; ALT [1, 10]: 29.00 ± 3.46 U/L; AST [1, 11]: 172.3 ± 44.28 U/L; PLT [1, 12]: 927.80 ± 223.4 10^3/µL; Body weight [1, 13]: 22.20 ± 2.12 g; induction of apoptosis (annexin V) [2]: failed to induce MDA-MB-231 cells to undergo apoptosis; DNA fragmentation [3]: no sign of cisplatin-induced PS expression or DNA fragmentation; reduction (proliferative inhibition) [4]: 23%; IC50 [4]: 70 µM; reduction in cell viability [5]: 10%; IC50 [5]: > 80 µM; average tumor volume ([6]; 2.11 mg/kg i.p. weekly x4, day 28, PBS 1412.72 ± 120.85): around 821.66 ± 133.75 mm^3; average tumor volume [6, 14]: ~540.23 ± 133.20 mm^3

— article PMC9031226, “Preclinical Therapeutic Assessment of a New Chemotherapeutics [Dichloro(4,4’-Bis(2,2,3,3-Tetrafluoropropoxy) Methyl)-2,2’-Bipryridine) Platinum] in an Orthotopic Patient-Derived Xenograft Model of Triple-Negative Breast Cancers” (Pharmaceutics, 2022)
